Key:
[1] = test system: γδ T-cells; test: Culture of peripheral blood mononuclear cells with Aredia and IL-2, phenotype by flow cytometer (Example 4); type: cell-based, human; conditions: peripheral blood monocyte suspension, Aredia 10 μM, IL-2 1,000 U/ml, cultivated 14 days
Procedure: From a healthy donor 30 ml of peripheral blood was collected, and peripheral blood mononuclear cells were collected using a density gradient medium for blood cell separation. The cells collected were washed several times to remove platelets and the like.
The peripheral blood monocytes obtained were suspended in AIM-V medium (10% FCS), and Aredia was added so that the concentration in the peripheral blood monocyte suspension was 10 μM.
This was cultivated for 14 days. During this period, AIM-V (10% FCS) medium and IL-2, at a final concentration of 1,000 U/ml, were added in accordance with the cell proliferation.
Using a flow cytometer, the phenotype of the cells cultured was confirmed to be a cell subset containing at least 95% of γδ T-cells.

[2] = test system: γδ T-cells; test: IFN-γ ELISpot confirming activation of γδ T-cells (Example 5); type: cell-based, human; conditions: 30,000 γδ T-cells + 15,000 immature or mature dendritic cells + Aredia 10 μM, versus γδ T-cells alone, γδ T-cells with Aredia only, FIG. 2
Procedure: In each well of a MultiScreen plate (Millipore), 70% ethanol was added and removed within two minutes.
An anti-interferon(IFN)-γ antibody for coating (clone: 1-D1K, MABTECH ELISpot for Human Interferon-γ kit) was diluted with PBS to 15 μg/ml, and added 100 μl/well.
The γδ T-cells obtained in Example 4 were collected by centrifugation and washed twice with AIM-V.
To 30,000 of the γδ T-cells collected, and 15,000 of the immature or mature dendritic cells obtained in Example 1 Aredia, prepared to have a final concentration of 10 μM, was added, and precultivated in a 15 ml tube (Falcon) under the conditions of 37° C. and 5% CO2 for two hours. At the same time, precultivation of γδ T-cells by themselves, precultivation of γδ T-cells with only Aredia added thereto, and precultivation of the respective dendritic cells by themselves were also conducted. Each culture volume was adjusted to 300 μl.
The plate was washed with PBS after blocking, and each group of cells which completed precultivation under the respective conditions was disseminated in three wells, 100 μl/well.
They were cultured overnight under the conditions of 37° C. and 5% CO2. […]
After confirming that the membrane on the plate was dry, the number of spots was measured using an ELISpot reader (AID Autoimmune Diagnostika GmbH), and the data was analyzed using the AID software version 3.1 (AID).

Compound: NCCC(O)(P(=O)([O-])O)P(=O)([O-])O.O.O.O.O.O.[Na+].[Na+] [Aredia, pamidronate disodium pentahydrate]
- γδ T-cells in the cultured cell subset [1]: at least 95%
- number of spots (IFN-γ ELISpot) [2]: increased only when the dendritic cells and Aredia were added simultaneously to the γδ T-cells
- spot intensity (IFN-γ ELISpot) [2]: increased only when the dendritic cells and Aredia were added simultaneously to the γδ T-cells

From patent US8513010B2, “Dendritic cells pulsed with a bisphosphonate” (Medinet Co. Ltd., priority 2004, dated 2013)
